# Entries after “also recorded” stand apart in the source; their conditions may differ. Like-named read-outs stand apart in the source and are kept apart here. Peptide text beside a SMILES is read from it.
# Key:
# [1] = test system: E. coli inner membrane; conditions: ref Wang et al. [55]; cited from earlier work
# Experimental: Recent findings indicate HD5 exerts its activity against the E. coli by localizing to bacterial cytoplasm and possibly interacting with DNA [39]. In a very recent study, Wang et al., have shown that HD5 permeabilizes the E. coli inner membrane. However, prolonged incubation (~40 minutes) was required t ...
# [2] = test system: E. coli inner membrane; assay: Time-lapse fluorescence confocal microscopy (SYTOX green / FM4-64); type: cell-based, Escherichia coli; conditions: for Intracellular accumulation of SYTOX green (E. coli inner membrane permeabilization): sub-lethal concentrations: HBD1 3 μM, HBD2 3 μM, HBD3 1 μM, HBD4 3 μM, HNP3 8 μM, HNP4 4 μM, HD5 2.5 μM, HD6 5 μM, 10^6 CFU/mL, 10 mM sodium phosphate buffer pH 7.4; for Intracellular accumulation of SYTOX green (E. coli inner membrane permeabilization) / time at which SYTOX green accumulation is evident: 5 nM SYTOX green; for time at which SYTOX green accumulation is evident: sub-lethal defensin concentrations, time-lapse confocal microscopy
# Experimental: Effect of defensins on the E. coli inner membrane was examined using time-lapse confocal fluorescence microscopy. The assay was carried out as follows. Bacteria from the mid-log-phase was collected and resuspended (final density was adjusted to 10^6 CFU/mL) in 10 mM sodium phosphate buffer (pH 7.4). Cells were then treated with 3 μM FM4-64 for 20 minutes at room temperature to stain the inner membrane. FM4-64 is a lipophilic dye which stains the bacterial inner membrane. Excess dye was removed by centrifuging. The FM4-64 stained cells were then treated with sub-lethal concentrations of defensins in presence of 5 nM of SYTOX green. […] Cells were immediately transferred to chambered slides and images were recorded using 100X oil immersion objective on a Leica Ultraspectral microscope SP8 (Leica Microsystems). Argon 488 and HeNe 561 lasers were used to excite SYTOX green and FM4-64, respectively. Signals ranging from 510 to 560 nm and 600 to 740 nm were collected for SYTOX green and FM4-64, respectively. Images were processed using LAS-AFver3.1.3 (Leica Microsystems).
# [3] = test system: E. coli inner membrane; assay: SYTOX green uptake assay using fluorescent spectroscopy; type: cell-based, Escherichia coli; conditions: 2 × MBC of defensins, 200 nM SYTOX green, 5 × 10^6 CFU/mL, 10 mM phosphate buffer
# Experimental: Effect of defensins on the E. coli inner membrane was assessed by measuring the extent of intracellular accumulation of SYTOX green. Cells from mid-log-phase were collected, washed and resuspended in 10 mM phosphate buffer. The final density was adjusted to 5 × 10^6 CFU/mL. […] Enhancement in SYTOX green fluorescence, a direct measure of the extent of membrane permeabilization was monitored in a Flurolog 3–22 fluorescence spectrophotometer (Jobin Yvon, USA). Excitation and emission wavelengths used were 503 nm and 523 nm, respectively.  Fig 4 Accumulation of SYTOX green in human defensins treated E. coli. […] The arrows indicate the point at which defensins were added.
# [4] = Calcein release assay from lipid vesicles; conditions: calcein entrapped POPC:POPG (1:1) LUVs, 25 μM, 10 mM sodium phosphate buffer pH 7.4, increasing defensin concentrations; 1% Triton X-100 = 100%
# Experimental: Large unilamellar vesicles (LUVs) composed of POPC:POPG (1:1) containing 50 mM calcein were prepared by lipid extrusion method. Desired amounts of lipids from their respective chloroform stocks were taken into a glass tube and dried under a nitrogen stream to form a thin uniform lipid film. The film was further dried under vacuum for 5 to 6 hours to remove trace amounts of organic solvents. After this step, the lipid film was hydrated with 10 mM sodium phosphate buffer (pH 7.4) containing 50 mM calcein at 4°C for 12 to 15 hours. Hydrated lipid films were then vortexed and passed through polycarbonate membrane having a pore diameter of 100 nm using a mini-extruder (Avanti Polar Lipid Inc.). Free calcein was removed by passing through a Sephadex G50 column. Calcein entrapped vesicles (25 μM) were then treated with increasing concentrations of defensins and extent of calcein released was measured in a Fluorolog 3–22 fluorescence spectrophotometer (Jobin Yvon, USA). Excitation and emission wavelengths used were 485 and 515 nm, respectively. 1% Triton X-100 was used for complete release of calcein.  Fig 5 Effect of human defensins on POPC:POPG (1:1) vesicles. Calcein entrapped POPC: POPG vesicles (25 μM) were treated with increasing concentrations of human defensins and percentage of calcein released was calculated. Calcein released by 1% Triton X-100 was taken as 100%.
# [5] = Transmission electron microscopy of defensin aggregates; type: physicochemical; conditions: 20 μM defensin in 10 mM sodium phosphate buffer pH 7.4, uranyl acetate stain, TEM
# Experimental: Defensins were diluted to a concentration of 20 μM in 10 mM sodium phosphate buffer (pH 7.4) from their respective stocks solutions (dissolved in Milli-Q water). From these solutions, 5 μL was deposited on a carbon-coated Formvar 200-mesh copper grid. The grid was left undisturbed for about 5 minutes; excess buffer was then removed using Whatman filter paper. Grids were stained with uranyl acetate (2% w/v) for 45 seconds. Excess stain was removed and grids were used for recording the images. Images were recorded using JAM-2100 LaB6 transmission electron microscope (JEOL, Tokyo, Japan) at 100 kV.
# [6] = test system: E. coli; assay: Zeta potential of E. coli in the presence of defensins; type: cell-based, Escherichia coli; conditions: for E. coli surface charge neutralizing ability (change in zeta potential): 5 μM defensin, except HD5 2.5 μM and HBD3 0.5 μM, three independent experiments; for concentration found to neutralize the E. coli surface charge almost completely: zeta potential of E. coli
# Experimental: Zeta potential of the E. coli in the presence of human defensins was measured as described previously. The concentration of peptide used was 5μM, except for HBD3 and HD5. […] Cells were treated with 5 μM defensin and zeta potential was measured, except in the cases of HD5 and HBD3. In the cases of HD5 and HBD3, zeta potential was measured after treating with 2.5 μM and 0.5 μM of peptides, respectively. Control represent zeta potential of E. coli in the absence of any peptide. Error bars represents standard deviations of three independent experiments.
# [7] = test system: E. coli MG1655; conditions: cited from earlier work
# Excerpt: Table 2 Minimum Bactericidal Concentration (MBC) of human defensins against E. coli MG1655. | column: Minimum bactericidal concentration in μM^a
# [8] = ref Krishnakumari et al. 2013 [44]
Compound,incubation required to observe E. coli inner membrane perturbation [1],Intracellular accumulation of SYTOX green (E. coli inner membrane permeabilization) [2],time at which SYTOX green accumulation is evident [2],"Damage to the E. coli inner membrane (SYTOX green accumulation, time-lapse microscopy and fluorescent spectroscopy) [3]",Permeabilization of lipid vesicles (calcein release) [4],Morphology of self-assembled aggregates (electron micrographs) [5],E. coli surface charge neutralizing ability (change in zeta potential) [6],concentration found to neutralize the E. coli surface charge almost completely [6] [µM],"Minimum bactericidal concentration [7, 8] [µM]","Morphological features of FM4-64 stained E. coli inner membrane ([2]; 3 μM FM4-64, sub-lethal defensin concentration (HBD4 3 μM))",Minimum bactericidal concentration ([7]; ref Sharma and Nagaraj 2012 [45]) [µM]
"CC[C@H](C)[C@@H]1NC(=O)[C@H](CCC(=O)O)NC(=O)[C@@H]2CSSC[C@@H]3NC(=O)[C@H](Cc4ccc(O)cc4)NC(=O)[C@@H](NC(=O)[C@@H](NC(=O)[C@H](C)N)[C@@H](C)O)CSSC[C@@H](C(=O)N[C@@H](CCCNC(=N)N)C(=O)O)NC(=O)[C@H](CSSC[C@H](NC(=O)[C@H](CCCNC(=N)N)NC(=O)CNC(=O)[C@H]([C@@H](C)O)NC(=O)[C@H](CCCNC(=N)N)NC3=O)C(=O)N[C@@H](C)C(=O)N[C@@H]([C@@H](C)O)C(=O)N[C@@H](CCCNC(=N)N)C(=O)N[C@@H](CCC(=O)O)C(=O)N[C@@H](CO)C(=O)N[C@@H](CC(C)C)C(=O)N[C@@H](CO)C(=O)NCC(=O)N[C@@H](C(C)C)C(=O)N2)NC(=O)[C@H](CC(C)C)NC(=O)[C@H](CCCNC(=N)N)NC(=O)[C@H](Cc2ccc(O)cc2)NC(=O)[C@H](CC(C)C)NC(=O)[C@H](CCCNC(=N)N)NC(=O)CNC(=O)[C@H](CO)NC1=O [HD5] (HELM PEPTIDE1{A.T.C.Y.C.R.T.G.R.C.A.T.R.E.S.L.S.G.V.C.E.I.S.G.R.L.Y.R.L.C.C.R}$PEPTIDE1,PEPTIDE1,3:R3-31:R3|PEPTIDE1,PEPTIDE1,5:R3-20:R3|PEPTIDE1,PEPTIDE1,10:R3-30:R3$$$V2.0; N-terminus and C-terminus assumed)",~ 40 minutes,does not permeabilize the E. coli inner membrane; also recorded: faint localization of SYTOX green,30 min,do not cause extensive damage to the E. coli inner membrane,do not permeabilize membranes,rod-like structures,neutralizes the E. coli surface charge at much lower concentration than HNP4,2.5,,,
"CC[C@H](C)[C@@H]1NC(=O)[C@H](CC(C)C)NC(=O)[C@@H]2CSSC[C@@H]3NC(=O)[C@H](CO)NC(=O)[C@@H](NC(=O)[C@@H](N)C(C)C)CSSC[C@@H](C(=O)N[C@H](C(=O)N[C@@H](CCCNC(=N)N)C(=O)N[C@H](C(=O)O)C(C)C)[C@@H](C)O)NC(=O)[C@H](CSSC[C@H](NC(=O)[C@H](Cc4ccccc4)NC(=O)[C@H](C(C)C)NC(=O)[C@H](CC(C)C)NC(=O)[C@H](CCCNC(=N)N)NC3=O)C(=O)N[C@@H](CCCNC(=N)N)C(=O)N[C@@H](CCCNC(=N)N)C(=O)N[C@@H]([C@@H](C)O)C(=O)N[C@@H](CCC(=O)O)C(=O)N[C@@H](CC(C)C)C(=O)N[C@@H](CCCNC(=N)N)C(=O)N[C@@H](C(C)C)C(=O)NCC(=O)N[C@@H](CC(N)=O)C(=O)N2)NC(=O)[C@H](Cc2ccc(O)cc2)NC(=O)[C@H]([C@@H](C)O)NC(=O)[C@H](Cc2ccccc2)NC(=O)[C@H](CO)NC(=O)[C@H](C(C)C)NC(=O)CNC(=O)CNC1=O [HNP4] (HELM PEPTIDE1{V.C.S.C.R.L.V.F.C.R.R.T.E.L.R.V.G.N.C.L.I.G.G.V.S.F.T.Y.C.C.T.R.V}$PEPTIDE1,PEPTIDE1,2:R3-30:R3|PEPTIDE1,PEPTIDE1,4:R3-19:R3|PEPTIDE1,PEPTIDE1,9:R3-29:R3$$$V2.0; N-terminus and C-terminus assumed)",,cytoplasmic accumulation of SYTOX green is evident,11 min,,,,,,,,
AFTC^1HC^2RRSC^3YSTEYSYGTC^2TVMGINHRFC^3C^1L (bicyclic or more) [HD6],,,,do not cause extensive damage to the E. coli inner membrane,do not permeabilize membranes,distinctive fibrillar morphology,"neutralizes the E. coli surface charge more efficiently than HBD4 (+7), HBD1 (+ 4) and HNP3 (+2)",,,,
"DHYNC^1VSSGGQC^2LYSAC^3PIFTKIQGTC^2YRGKAKC^1C^3K (bicyclic or more) [HBD1, human β-defensin, three disulfide bonds, purchased from Peptides International]",,faint accumulation of SYTOX green,~ 20 min,do not cause extensive damage to the E. coli inner membrane,do not permeabilize membranes,,poor surface charge neutralizing ability,,8,,
"ELDRIC^1GYGTARC^2RKKC^3RSQEYRIGRC^2PNTYAC^1C^3LRKWDESLLNRTKP (bicyclic or more) [HBD4, human β-defensin, three disulfide bonds, purchased from Peptides International]",,,,,does not permeabilize PC:PG vesicles,,,,,FM4-64 staining shows considerable diffusion into cytoplasm,5
"GIGDPVTC^1LKSGAIC^2HPVFC^3PRRYKQIGTC^2GLPGTKC^1C^3KKP (bicyclic or more) [HBD2, human β-defensin, three disulfide bonds, purchased from Peptides International]",,,,,,,,,8,,
"GIINTLQKYYC^1RVRGGRC^2AVLSC^3LPKEEQIGKC^2STRGRKC^1C^3RRKK (bicyclic or more) [HBD3, human β-defensin, three disulfide bonds, purchased from Peptides International]",,,,,,,most efficient bacterial surface charge neutralizing ability,0.5,2,,

# — publication PMC5397029, “Variations in the interaction of human defensins with Escherichia coli: Possible implications in bacterial killing” (PLoS ONE, 2017)
